Target: T1, voltage-gated sodium channel Nav1.7 (Homo sapiens, UniProt Q15858)
T1 construct: host or cells: HEK293
Assay: Nav1.7 inhibition, membrane potential fluorescence dye assay with veratridine stimulation in Human Nav1.7-HEK293 cells
Type: cell-based
Conditions: 30 μM veratridine as stimulant
Method: Human Nav1.7-HEK293 cells are HEK293 (human embryonic kidney 293) cells stabilized by transforming the human Nav1.7 gene. One day before experiment, the Human Nav1.7-HEK293 cells were dispensed onto a 96-well plate with 8×10^4 cells/well and cultured in a 5% CO2 incubator at 37° C. for 24 hours. DMEM/F12 containing 10% fetal bovine serum (FBS) was used as a culture medium and geneticin (Gibco®, Thermo Fisher Scientific) was added to stabilize the cells.
24 hours later, after washing the 96-well plate once with a 20 mM HEPES Hanks' balanced salt solution (HBSS) buffer (hereinafter, referred to as a reaction buffer, Invitrogen®, Thermo Fisher Scientific), a membrane potential fluorescence dye (FLIPR®, Molecular Devices) was added to the human Nav1.7-HEK293 cells. […] After reaction for 10 minutes, the change in membrane potential depending on treatment with 30 μM veratridine as a stimulant was measured for each well for 55 seconds using a fluorescence plate reader (FlexStation3, Molecular Device, USA).
The inhibition rate was calculated in the same manner also for lidocaine (Sigma) which is used as a local anesthetic and itch-relieving agent.

T1 sequence (Q15858 whole entry): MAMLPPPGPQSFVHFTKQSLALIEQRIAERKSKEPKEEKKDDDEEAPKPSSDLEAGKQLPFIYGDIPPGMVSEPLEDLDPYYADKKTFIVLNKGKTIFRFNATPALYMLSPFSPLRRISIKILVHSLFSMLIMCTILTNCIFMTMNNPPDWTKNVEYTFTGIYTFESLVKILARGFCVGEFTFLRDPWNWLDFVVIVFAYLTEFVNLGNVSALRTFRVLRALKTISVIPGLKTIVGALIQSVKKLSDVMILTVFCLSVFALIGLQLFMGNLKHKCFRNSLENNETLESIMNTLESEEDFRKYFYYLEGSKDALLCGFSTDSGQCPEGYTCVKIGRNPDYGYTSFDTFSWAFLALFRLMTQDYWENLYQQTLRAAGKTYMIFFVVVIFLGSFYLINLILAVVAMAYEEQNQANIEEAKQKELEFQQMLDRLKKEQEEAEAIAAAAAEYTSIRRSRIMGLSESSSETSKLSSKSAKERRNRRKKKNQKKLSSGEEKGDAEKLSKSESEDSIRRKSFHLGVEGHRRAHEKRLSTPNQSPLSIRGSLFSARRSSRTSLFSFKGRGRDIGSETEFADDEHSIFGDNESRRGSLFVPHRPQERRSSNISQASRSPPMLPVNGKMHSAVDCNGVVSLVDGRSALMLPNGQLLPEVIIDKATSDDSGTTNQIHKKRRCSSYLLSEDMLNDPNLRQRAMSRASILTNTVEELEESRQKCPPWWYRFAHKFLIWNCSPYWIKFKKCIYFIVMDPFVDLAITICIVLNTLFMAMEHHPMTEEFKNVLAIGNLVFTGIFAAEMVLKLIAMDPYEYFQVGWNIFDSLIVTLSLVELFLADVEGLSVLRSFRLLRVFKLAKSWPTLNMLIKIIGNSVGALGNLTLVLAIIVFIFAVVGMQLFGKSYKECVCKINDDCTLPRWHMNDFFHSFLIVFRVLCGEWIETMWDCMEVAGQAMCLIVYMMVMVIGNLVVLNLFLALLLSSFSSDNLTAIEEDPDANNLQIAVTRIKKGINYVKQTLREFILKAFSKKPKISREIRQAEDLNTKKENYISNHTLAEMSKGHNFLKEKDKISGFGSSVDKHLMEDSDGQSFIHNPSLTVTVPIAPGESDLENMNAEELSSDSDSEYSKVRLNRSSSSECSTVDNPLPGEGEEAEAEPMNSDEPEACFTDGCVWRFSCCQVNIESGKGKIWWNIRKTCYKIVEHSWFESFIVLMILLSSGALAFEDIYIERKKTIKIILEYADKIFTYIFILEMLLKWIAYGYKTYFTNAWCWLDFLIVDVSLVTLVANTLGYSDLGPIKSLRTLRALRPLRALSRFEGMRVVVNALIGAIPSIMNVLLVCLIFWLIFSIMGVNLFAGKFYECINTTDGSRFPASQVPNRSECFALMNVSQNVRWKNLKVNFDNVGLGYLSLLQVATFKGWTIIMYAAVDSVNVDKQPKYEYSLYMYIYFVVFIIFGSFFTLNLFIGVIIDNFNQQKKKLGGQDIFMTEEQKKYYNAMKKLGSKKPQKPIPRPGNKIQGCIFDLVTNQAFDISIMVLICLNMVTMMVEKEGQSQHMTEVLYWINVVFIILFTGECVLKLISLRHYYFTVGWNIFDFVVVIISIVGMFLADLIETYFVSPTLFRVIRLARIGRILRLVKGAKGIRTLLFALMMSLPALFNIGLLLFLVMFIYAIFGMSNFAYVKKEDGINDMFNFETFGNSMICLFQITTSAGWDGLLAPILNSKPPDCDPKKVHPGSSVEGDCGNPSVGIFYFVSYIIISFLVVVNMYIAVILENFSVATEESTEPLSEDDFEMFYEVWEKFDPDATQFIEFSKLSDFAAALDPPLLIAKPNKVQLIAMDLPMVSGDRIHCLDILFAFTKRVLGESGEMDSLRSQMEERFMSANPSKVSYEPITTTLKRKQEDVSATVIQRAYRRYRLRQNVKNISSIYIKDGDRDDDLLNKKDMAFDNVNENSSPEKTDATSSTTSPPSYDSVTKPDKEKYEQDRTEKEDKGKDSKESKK

In the case of CCN(CC)CC(=O)Nc1c(C)cccc1C [Lidocaine, lidocaine], the IC50 is reported as 28.7 µM.

— patent US11583512B2, “Composition for relieving itch or irritation of skin, comprising thymol trimethoxycinnamate” (Amorepacific Corporation, priority 2020, dated 2023)
